MIC and IC50 data for 3 compounds are collected here from US20240270762A1, “PENICILLIN-BINDING PROTEIN INHIBITORS” (priority 2021, published 2024).

SMILES strings stand for the structures. In brackets after ≈: the same amount, converted by molar mass.

One experiment deals with A. baumannii CDC-0036. Kind of experiment: microbe, parasite or virus in culture. Format: cell-based. To be noted: Acinetobacter baumannii, CDC0036, read-out: MIC, A. baumannii CDC-0036.
A further experiment has as its system P. aeruginosa CDC-0054. Kind of experiment: microbe, parasite or virus in culture. Particulars: Pseudomonas aeruginosa, CDC0054, read-out: Minimum inhibitory concentration, P. aeruginosa CDC-0054. Format: cell-based.
The next experiment deals with P. aeruginosa CDC-0090. Briefly: microbe, parasite or virus in culture. Format: cell-based. Particulars: Pseudomonas aeruginosa, CDC0090, read-out: Minimum inhibitory concentration, P. aeruginosa CDC-0090.
The subject of a further experiment is A. baumannii ATCC 17978. Kind of experiment: microbe, parasite or virus in culture. It is filed as cell-based. To be noted: Acinetobacter baumannii, ATCC17978, read-out: MIC, A. baumannii ATCC 17978.
Experiment [1] concerns B. thailandensis ATCC 700388. Briefly: microbe, parasite or virus in culture. Format: cell-based. Particulars: Burkholderia thailandensis, ATCC700388, read-out: Minimum inhibitory concentration (MIC), B. thailandensis ATCC 700388.
The subject of a further experiment is A. baumannii CDC-0045. Briefly: microbe, parasite or virus in culture. Format: cell-based. To be noted: Acinetobacter baumannii, CDC0045, read-out: MIC, A. baumannii CDC-0045.
The target of experiment [2] is T1, PBP3 from Acinetobacter baumannii (ATCC 19606) (Acinetobacter baumannii, UniProt A0ABX6CK25).
T1 sequence (A0ABX6CK25 64-610): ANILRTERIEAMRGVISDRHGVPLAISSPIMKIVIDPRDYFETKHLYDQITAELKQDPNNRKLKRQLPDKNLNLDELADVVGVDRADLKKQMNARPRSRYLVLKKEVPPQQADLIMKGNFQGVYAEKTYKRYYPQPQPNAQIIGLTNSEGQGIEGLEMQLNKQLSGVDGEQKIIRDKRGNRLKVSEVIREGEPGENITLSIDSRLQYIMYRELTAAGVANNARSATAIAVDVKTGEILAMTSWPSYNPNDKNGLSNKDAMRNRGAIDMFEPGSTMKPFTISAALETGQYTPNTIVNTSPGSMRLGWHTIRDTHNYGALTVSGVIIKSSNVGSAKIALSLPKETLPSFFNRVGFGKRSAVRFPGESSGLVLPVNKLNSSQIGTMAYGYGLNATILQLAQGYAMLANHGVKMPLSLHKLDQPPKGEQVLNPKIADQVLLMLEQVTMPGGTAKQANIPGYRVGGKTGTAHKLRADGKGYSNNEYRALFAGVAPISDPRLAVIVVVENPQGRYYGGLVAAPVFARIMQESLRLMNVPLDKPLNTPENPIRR
Briefly: Bocillin-FL fluorescence polarization competition binding, A. baumannii PBP3. Particulars: fluorescence polarization competition binding assay using Bocillin-FL; read-out: A. baumannii PBP3 Potency. Summed up:
(§1)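 Purified PBPs pre-incubated with inhibitor (E. coli PBP3 1.5 μM, 30 min; P. aeruginosa PBP3 0.75 μM, A. baumannii PBP1a 1 μM and PBP3 0.2 μM, 15 min), then Bocillin-FL 0.1 μM (0.05 μM for PBP1a) added; FP read up to 60 min. EC50 = concentration halving bound Bocillin-FL.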
(In fluorescence polarisation assays a small probe gives low polarisation when free and higher when bound to something large.)

Another experiment deals with A. baumannii 1258916. Kind of experiment: microbe, parasite or virus in culture. Format: cell-based, Acinetobacter baumannii. Particulars: Acinetobacter baumannii, 1258916, read-out: MIC, A. baumannii 1258916.
Experiment [3] concerns the target T2, PBP3 from Pseudomonas aeruginosa (PAO1) (Pseudomonas aeruginosa, UniProt G3XD46).
T2 construct: made in house
Briefly: Bocillin-FL fluorescence polarization competition binding, P. aeruginosa PBP3. Particulars: Binding affinity to P. aeruginosa PBP3; fluorescence polarization competition binding assay using Bocillin-FL; read-out: P. aeruginosa PBP3 Potency. Summed up: as §1

The test system of a further experiment is P. aeruginosa ATCC 27853. Briefly: microbe, parasite or virus in culture. It is filed as cell-based. To be noted: Pseudomonas aeruginosa, ATCC27853, read-out: Minimum inhibitory concentration, P. aeruginosa ATCC 27853.

T2 sequence (G3XD46 whole entry): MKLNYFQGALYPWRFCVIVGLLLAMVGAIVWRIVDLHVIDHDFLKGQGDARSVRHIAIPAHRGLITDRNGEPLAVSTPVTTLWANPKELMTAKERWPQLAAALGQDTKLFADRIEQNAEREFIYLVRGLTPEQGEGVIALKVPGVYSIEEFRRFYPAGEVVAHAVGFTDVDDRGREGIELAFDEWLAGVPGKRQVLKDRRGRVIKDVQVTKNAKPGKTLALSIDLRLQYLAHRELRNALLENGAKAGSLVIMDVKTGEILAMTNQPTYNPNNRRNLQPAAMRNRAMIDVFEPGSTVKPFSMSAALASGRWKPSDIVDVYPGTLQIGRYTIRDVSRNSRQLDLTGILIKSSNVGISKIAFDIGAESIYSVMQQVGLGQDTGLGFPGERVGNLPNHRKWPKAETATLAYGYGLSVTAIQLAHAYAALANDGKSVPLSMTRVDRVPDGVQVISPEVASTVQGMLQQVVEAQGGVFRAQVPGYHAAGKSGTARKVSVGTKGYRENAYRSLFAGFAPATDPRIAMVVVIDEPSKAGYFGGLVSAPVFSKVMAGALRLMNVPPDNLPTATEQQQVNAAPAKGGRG

For the compound `O=C(O)c1c(F)ccc2c1OB(O)[C@@H](NC(=O)C(NC(=O)N1CCN(C3CCN(C(=O)c4ccc(O)cc4O)CC3)C(=O)C1=O)c1cc(F)c(O)c(O)c1Cl)C2` (stereo partly drawn) [Example 476, (3R)-3-(2-(2-chloro-5-fluoro-3,4-dihydroxyphenyl)-2-(4-(1-(2,4-dihydroxybenzoyl)piperidin-4-yl)-2,3-dioxopiperazine-1-carboxamido)acetamido)-7-fluoro-2-hydroxy-3,4-dihydro-2H-benzo[e][1,2]oxaborinine-8-carboxylic acid], the MIC (in the experiment on A. baumannii CDC-0036; with P. aeruginosa CDC-0054; in the experiment on P. aeruginosa CDC-0090; in the experiment with A. baumannii ATCC 17978; in [1]; in the experiment with A. baumannii CDC-0045) was less than 1 µg/mL in each case. Besides, the MIC with A. baumannii 1258916 and in the experiment on P. aeruginosa ATCC 27853 was less than 1 µg/mL each time. Moreover, the IC50 in [2] and in experiment [3] was less than 10 µM in each case.

As to `O=C(O)c1c(F)ccc2c1OB(O)[C@@H](NC(=O)C(NC(=O)N1CCN(CC3CCN(C(=O)Nc4cccc(O)c4)CC3)C(=O)C1=O)c1cc(F)c(O)c(O)c1Cl)C2` (stereo partly drawn) [Example 477, (3R)-3-(2-(2-chloro-5-fluoro-3,4-dihydroxyphenyl)-2-(4-((1-((3-hydroxyphenyl)carbamoyl)piperidin-4-yl)methyl)-2,3-dioxopiperazine-1-carboxamido)acetamido)-7-fluoro-2-hydroxy-3,4-dihydro-2H-benzo[e][1,2]oxaborinine-8-carboxylic acid], the MIC was 2 to 4 µg/mL (≈ 2.45 to 4.91 µM) with A. baumannii CDC-0036; less than 1 µg/mL in the experiment with P. aeruginosa CDC-0054; less than 1 µg/mL in the experiment on P. aeruginosa CDC-0090; less than 1 µg/mL in the experiment on A. baumannii ATCC 17978; less than 1 µg/mL in experiment [1]; less than 1 µg/mL in the experiment on A. baumannii CDC-0045. In addition, the MIC in the experiment on A. baumannii 1258916 and in the experiment on P. aeruginosa ATCC 27853 was less than 1 µg/mL each time. Further, the IC50 in [2] and in [3] was less than 10 µM throughout.

In the case of `O=C(O)c1c(F)ccc2c1OB(O)[C@@H](NC(=O)C(NC(=O)N1CCN(C3CCN(C(=O)Nc4cccc(O)c4F)CC3)C(=O)C1=O)c1cc(F)c(O)c(O)c1Cl)C2` (stereo partly drawn) [Example 478, (3R)-3-(2-(2-chloro-5-fluoro-3,4-dihydroxyphenyl)-2-(4-(1-((2-fluoro-3-hydroxyphenyl)carbamoyl)piperidin-4-yl)-2,3-dioxopiperazine-1-carboxamido)acetamido)-7-fluoro-2-hydroxy-3,4-dihydro-2H-benzo[e][1,2]oxaborinine-8-carboxylic acid], the MIC with A. baumannii CDC-0036 was 2 to 4 µg/mL (≈ 2.44 to 4.88 µM); in the experiment with P. aeruginosa CDC-0054, 2 to 4 µg/mL (≈ 2.44 to 4.88 µM); in the experiment on P. aeruginosa CDC-0090, 2 to 4 µg/mL (≈ 2.44 to 4.88 µM); in the experiment on A. baumannii ATCC 17978, less than 1 µg/mL; in experiment [1] it was 2 to 4 µg/mL (≈ 2.44 to 4.88 µM); with A. baumannii CDC-0045, less than 1 µg/mL. Further, the MIC in the experiment on A. baumannii 1258916 is less than 1 µg/mL; in the experiment with P. aeruginosa ATCC 27853, 2 to 4 µg/mL (≈ 2.44 to 4.88 µM). The IC50 in experiment [2] and in [3] was less than 10 µM each time.
